Assay type in all cases: biochemical
Assay [1] deals with T1, human JAK1 (a.a. 837-1142) (Homo sapiens, UniProt P23458).
T1 construct: human JAK1 (a.a. 837-1142); His tag (N); made in house; host or cells: insect cells (baculovirus)
Kind of assay: In vitro JAK kinase assay (HTRF, phosphorylation of a biotinylated peptide), JAK1. The note with it: read-out: JAK1 IC50. In a few lines: (§1)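 Kinase activity was measured as phosphorylation of a biotinylated peptide, with ATP at 90 μM for JAK1, 30 μM for JAK2 and 3 μM for JAK3. Reactions ran 1 hr at room temperature, were stopped with EDTA plus SA-APC and Eu-Py20, and were read by HTRF after 40 minutes of antibody binding.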

The target in assay [2] is T2, human JAK2 (a.a. 828-1132) (Homo sapiens, UniProt O60674).
T2 construct: JAK2 (a.a. 828-1132); His tag (N); made in house; host or cells: insect cells (baculovirus)
The assay is described as follows: In vitro JAK kinase assay (HTRF, phosphorylation of a biotinylated peptide), JAK2. An outline of the steps: as §1

Assay [3] addresses T3, human JAK3 (a.a. 781-1124) (Homo sapiens, UniProt P52333).
T3 construct: JAK3 (a.a. 781-1124); His tag (N); made in house; host or cells: insect cells (baculovirus)
The assay is described as follows: In vitro JAK kinase assay (HTRF, phosphorylation of a biotinylated peptide), JAK3. An outline of the steps: as §1
(Time-resolved FRET reads energy transfer from a long-lived donor to a nearby acceptor.)

The target of assay [4] is TYK2 (Homo sapiens, UniProt P29597). The assay is described as follows: TYK2 kinase inhibition (Table A1).
For assay [5], the target named is T4, Recombinant Human Anaplastic Lymphoma Kinase (Homo sapiens, UniProt Q9UM73).
T4 construct: purchased Invitrogen, Carlsbad, Calif
Kind of assay: ALK HTRF kinase assay. Particulars: for IC50: Table B1, cells without percent sign. An outline of the steps: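 Compounds were incubated with recombinant human ALK and a biotin-tagged peptide substrate. Product was captured with streptavidin-APC and probed with a europium anti-phosphotyrosine antibody, and plates were read for time-resolved fluorescence. Dose-response data were fitted to derive IC50.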

Setting [6] is: method AA1 (90 μM ATP) or AA2 (1000 μM ATP), not stated per value.
[7] abbreviates: method AA1 (30 μM ATP) or AA2 (1000 μM ATP), not stated per value.
Where [8] appears, read: method AA1 (3 μM ATP) or AA2 (1000 μM ATP), not stated per value.
[9] abbreviates: compound at 500 nM or 1 mM, 90 μM ATP.
[10] abbreviates: compound at a concentration of 500 nM or 1 mM (not specified), cells shown as percentage.

SMILES strings stand for the structures. Where a name gives a salt, the structure may show the parent alone. Read-outs that look alike come from different tables or passages of the source.

Chain of TYK2 (P29597 whole entry): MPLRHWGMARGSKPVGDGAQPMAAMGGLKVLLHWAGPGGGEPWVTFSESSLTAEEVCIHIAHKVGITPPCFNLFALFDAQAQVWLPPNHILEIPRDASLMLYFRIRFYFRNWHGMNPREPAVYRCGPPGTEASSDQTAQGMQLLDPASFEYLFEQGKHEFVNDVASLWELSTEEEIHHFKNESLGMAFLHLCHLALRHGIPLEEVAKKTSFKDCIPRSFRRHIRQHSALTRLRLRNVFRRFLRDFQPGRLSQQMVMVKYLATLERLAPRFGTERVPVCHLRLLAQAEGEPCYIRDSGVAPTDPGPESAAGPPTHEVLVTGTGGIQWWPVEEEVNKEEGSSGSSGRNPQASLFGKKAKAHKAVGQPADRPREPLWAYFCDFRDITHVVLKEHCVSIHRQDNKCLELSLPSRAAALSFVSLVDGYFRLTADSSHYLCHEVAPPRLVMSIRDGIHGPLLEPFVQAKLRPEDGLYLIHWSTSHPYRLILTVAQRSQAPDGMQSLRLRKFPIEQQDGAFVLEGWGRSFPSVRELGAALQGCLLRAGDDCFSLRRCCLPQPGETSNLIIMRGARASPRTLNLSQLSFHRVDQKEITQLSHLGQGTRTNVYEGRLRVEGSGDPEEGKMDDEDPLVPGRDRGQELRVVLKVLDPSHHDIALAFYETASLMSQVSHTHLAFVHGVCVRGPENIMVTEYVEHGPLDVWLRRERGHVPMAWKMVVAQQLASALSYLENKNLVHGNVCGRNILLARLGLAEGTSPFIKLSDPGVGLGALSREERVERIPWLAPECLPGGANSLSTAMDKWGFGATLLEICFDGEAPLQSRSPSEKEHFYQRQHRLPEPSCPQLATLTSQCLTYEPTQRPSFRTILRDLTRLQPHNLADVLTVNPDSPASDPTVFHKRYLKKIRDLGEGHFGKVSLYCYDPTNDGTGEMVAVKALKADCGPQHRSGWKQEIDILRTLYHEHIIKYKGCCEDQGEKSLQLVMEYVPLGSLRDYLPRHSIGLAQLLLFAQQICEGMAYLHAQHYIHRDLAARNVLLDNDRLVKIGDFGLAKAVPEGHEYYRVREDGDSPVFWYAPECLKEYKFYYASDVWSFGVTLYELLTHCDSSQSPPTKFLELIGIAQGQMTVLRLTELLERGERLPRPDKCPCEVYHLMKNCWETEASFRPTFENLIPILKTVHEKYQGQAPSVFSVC
T3 sequence (P52333 781-1124): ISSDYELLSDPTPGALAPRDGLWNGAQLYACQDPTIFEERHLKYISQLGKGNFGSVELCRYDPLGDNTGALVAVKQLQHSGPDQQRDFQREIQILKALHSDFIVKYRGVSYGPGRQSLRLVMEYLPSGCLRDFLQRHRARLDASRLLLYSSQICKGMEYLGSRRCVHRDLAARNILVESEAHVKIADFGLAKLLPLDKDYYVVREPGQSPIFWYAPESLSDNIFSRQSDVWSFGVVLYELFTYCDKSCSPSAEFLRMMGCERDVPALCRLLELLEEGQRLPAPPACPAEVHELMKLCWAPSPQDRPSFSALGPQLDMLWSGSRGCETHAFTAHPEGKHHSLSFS
T2 sequence (O60674 828-1132): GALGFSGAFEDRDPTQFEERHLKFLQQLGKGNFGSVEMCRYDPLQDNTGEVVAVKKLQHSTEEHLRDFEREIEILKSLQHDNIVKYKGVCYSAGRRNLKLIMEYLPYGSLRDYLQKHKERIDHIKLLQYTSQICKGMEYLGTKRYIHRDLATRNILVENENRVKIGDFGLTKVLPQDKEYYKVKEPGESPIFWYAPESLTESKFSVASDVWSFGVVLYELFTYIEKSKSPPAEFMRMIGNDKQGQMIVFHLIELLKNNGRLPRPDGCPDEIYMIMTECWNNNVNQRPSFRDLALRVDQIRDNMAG
T4 sequence (Q9UM73 19-1620): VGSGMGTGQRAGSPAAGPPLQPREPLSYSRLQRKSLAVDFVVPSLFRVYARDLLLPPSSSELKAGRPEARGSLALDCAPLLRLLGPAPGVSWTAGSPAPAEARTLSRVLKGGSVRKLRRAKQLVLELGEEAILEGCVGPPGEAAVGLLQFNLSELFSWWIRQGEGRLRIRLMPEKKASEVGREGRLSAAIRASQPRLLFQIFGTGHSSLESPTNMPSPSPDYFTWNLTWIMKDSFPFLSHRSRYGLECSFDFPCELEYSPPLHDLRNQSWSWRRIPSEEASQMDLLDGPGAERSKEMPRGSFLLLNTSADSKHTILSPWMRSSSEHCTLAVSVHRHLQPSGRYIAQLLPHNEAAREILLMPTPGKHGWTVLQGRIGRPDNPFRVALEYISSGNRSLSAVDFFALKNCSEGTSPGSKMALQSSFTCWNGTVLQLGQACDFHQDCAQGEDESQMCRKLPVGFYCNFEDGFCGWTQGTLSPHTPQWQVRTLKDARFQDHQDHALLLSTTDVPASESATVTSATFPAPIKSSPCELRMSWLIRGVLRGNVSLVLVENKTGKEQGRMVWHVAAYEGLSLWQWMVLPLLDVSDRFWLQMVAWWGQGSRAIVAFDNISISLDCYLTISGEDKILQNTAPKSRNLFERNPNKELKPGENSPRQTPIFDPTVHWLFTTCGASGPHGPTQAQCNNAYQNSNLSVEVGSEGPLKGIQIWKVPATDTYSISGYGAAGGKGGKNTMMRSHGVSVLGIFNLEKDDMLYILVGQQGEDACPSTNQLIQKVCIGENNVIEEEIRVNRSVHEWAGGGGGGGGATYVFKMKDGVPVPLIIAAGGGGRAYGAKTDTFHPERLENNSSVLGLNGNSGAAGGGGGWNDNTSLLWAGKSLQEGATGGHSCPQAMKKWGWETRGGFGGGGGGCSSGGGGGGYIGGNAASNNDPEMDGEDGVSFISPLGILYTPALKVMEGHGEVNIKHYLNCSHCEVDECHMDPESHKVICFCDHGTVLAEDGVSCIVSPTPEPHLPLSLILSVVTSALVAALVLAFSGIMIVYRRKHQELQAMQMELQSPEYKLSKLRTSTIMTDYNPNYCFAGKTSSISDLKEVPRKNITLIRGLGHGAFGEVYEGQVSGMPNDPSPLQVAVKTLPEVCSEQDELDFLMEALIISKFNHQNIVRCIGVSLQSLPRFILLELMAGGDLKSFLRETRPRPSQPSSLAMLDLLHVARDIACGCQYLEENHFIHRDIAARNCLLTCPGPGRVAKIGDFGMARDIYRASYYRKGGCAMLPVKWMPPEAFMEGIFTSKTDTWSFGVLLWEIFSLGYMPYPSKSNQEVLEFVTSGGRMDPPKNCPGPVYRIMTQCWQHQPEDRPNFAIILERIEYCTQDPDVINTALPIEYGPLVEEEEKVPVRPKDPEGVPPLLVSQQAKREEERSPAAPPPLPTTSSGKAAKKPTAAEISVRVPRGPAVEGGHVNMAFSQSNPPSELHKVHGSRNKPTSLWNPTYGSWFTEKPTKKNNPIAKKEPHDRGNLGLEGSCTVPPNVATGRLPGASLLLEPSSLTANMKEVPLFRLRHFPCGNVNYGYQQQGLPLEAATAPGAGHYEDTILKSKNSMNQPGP
T1 sequence (P23458 849-1154): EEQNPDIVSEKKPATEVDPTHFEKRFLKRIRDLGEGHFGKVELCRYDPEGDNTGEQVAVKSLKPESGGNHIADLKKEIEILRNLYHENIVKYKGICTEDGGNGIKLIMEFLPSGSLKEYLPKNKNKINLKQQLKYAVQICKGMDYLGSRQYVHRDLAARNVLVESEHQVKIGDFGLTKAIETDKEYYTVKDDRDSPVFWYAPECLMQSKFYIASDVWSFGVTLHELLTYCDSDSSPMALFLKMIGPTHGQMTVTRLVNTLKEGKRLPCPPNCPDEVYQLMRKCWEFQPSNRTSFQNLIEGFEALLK

As for `CCC(C)C(=O)Nc1ccc2cc1CCc1cccc(c1)Nc1ncc(Cl)c(n1)N2` (stereo not drawn) [Example B61, N-[6-Chloro-2,4,8,22-tetraazatetracyclo[14.3.1.1(3,7).1(9,13)]docosa-1(20), 3(22),4,6,9(21),10,12,16,18-nonaen-12-yl]-2-methylbutanamide trifluoroacetate], the IC50 in assay [1] (Table B1) turned out to be 19 nM; in assay [2] (Table B1) it was 1.4 nM; in assay [3] (Table B1), 3 nM; in assay [4] (Table B1), 34 nM; in assay [5] it was 680 nM.
The matching figures for `O=C(NCc1ccncc1)c1cc2cc(c1)Nc1nc(ncc1Cl)Nc1cccc(c1)CC2` [Example B11, 6-Chloro-N-(pyridin-4-ylmethyl)-2,4,8,22-tetraazatetracyclo[14.3.1.1(3,7).1(9,13)]docosa-1(20),3(22),4,6,9(21),10,12,16,18-nonaene-11-carboxamide bis(trifluoroacetate)]: 97 nM, 92 nM, 144 nM, 275 nM and 2370 nM.
For `O=[N+]([O-])c1ccc(CN2CCN(Cc3cc4cc(c3)Nc3nc(ncc3Cl)Nc3cccc(c3)CC4)CC2)cc1` [Example B194, 6-Chloro-11-{[4-(4-nitrobenzyl)piperazin-1-yl]methyl}-2,4,8,22-tetraazatetracyclo[14.3.1.1(3,7).1(9,13)]docosa-1(20),3(22),4,6,9(21),10,12,16,18-nonaene tris(trifluoroacetate)], the IC50 in assay [1] (Table B1) was 36 nM; in assay [2] (Table B1) it was 12 nM; in assay [3] (Table B1), 108 nM; in assay [4] (Table B1), 251 nM; in assay [5], greater than 1000 nM.
On to `O=C(Nc1ccc2cc1CCc1cccc(c1)Nc1ncc(Cl)c(n1)N2)C1CCCN(C(=O)c2ccccc2)C1` (stereo not drawn) [Example A48, 1-Benzoyl-N-[6-chloro-2,4,8,22-tetraazatetracyclo[14.3.1.1(3,7).1(9,13)]docosa-1(20),3(22),4,6,9(21),10,12,16,18-nonaen-12-yl]piperidine-3-carboxamide trifluoroacetate], for which the IC50 in assay [1] (setting [6]) stood at 27 nM; in assay [2] (setting [7]), 13 nM; in assay [3] (setting [8]) it was 56 nM; in assay [4], 92 nM. Further, the “ALK % of inhibition at a concentration of 500 nM or 1 mM” value (“ALK % of inhibition” below) in assay [5] (setting [9]) worked out at 28%.
Take `O=C(Nc1ccc2cc1CCc1cccc(c1)Nc1ncc(Cl)c(n1)N2)NC12CC3CC(CC(C3)C1)C2` [Example B127, N-1-Adamantyl-N′-[6-chloro-2,4,8,22-tetraazatetracyclo[14.3.1.1(3,7).1(9,13)]docosa-1(20),3(22),4,6,9(21),10,12,16,18-nonaen-12-yl]urea trifluoroacetate]: the half-maximal inhibitory concentration (IC50) in assay [1] (Table B1) amounted to 25 nM; in assay [2] (Table B1) it was 27 nM; in assay [3] (Table B1), 182 nM; in assay [4] (Table B1) it was 89 nM. Besides, the “ALK % of inhibition” value in assay [5] (setting [10]) turned out to be 6.1%.
With `CC(C)c1cc(C(=O)N2CCC(CC(=O)Nc3ccc4cc3CCc3cncc(c3)Nc3ncc(Cl)c(n3)N4)CC2)no1` [Example A214, N-[6-Chloro-2,4,8,18,22-pentaazatetracyclo[14.3.1.1(3,7).1(9,13)]docosa-1(20),3(22),4,6,9(21),10,12,16,18-nonaen-12-yl]-2-{1-[(5-isopropylisoxazol-3-yl)carbonyl]piperidin-4-yl}acetamide bis(trifluoroacetate)], the IC50 was 50 nM in assay [1] (setting [6]), greater than 200 nM in assay [2] (setting [7]), greater than 200 nM in assay [3] (setting [8]) and greater than 200 nM in assay [4]. The “ALK % of inhibition” value in assay [5] (setting [9]) stood at 15%.
As for `Cc1ccnc(Nc2ccc3cc2CCc2cccc(c2)Nc2ncc(Cl)c(n2)N3)n1` [Example B276, 6-Chloro-N-(4-methylpyrimidin-2-yl)-2,4,8,22-tetraazatetracyclo[14.3.1.1(3,7).1(9,13)]docosa-1(20),3(22),4,6,9(21),10,12,16,18-nonaen-12-amine bis(trifluoroacetate)], the IC50 in assay [1] (Table B1) was found to be 6.5 nM; in assay [2] (Table B1), 11 nM; in assay [3] (Table B1), 1170 nM; in assay [4] (Table B1) it was 34 nM. For the same molecule, the “ALK % of inhibition” value in assay [5] (setting [10]) was found to be 22%.
Regarding `O=C(c1cc2cc(c1)Nc1nc(ncc1Cl)Nc1cccc(c1)CC2)N1CCCC(O)C1` (stereo not drawn) [Example B12, 1-{[6-Chloro-2,4,8,22-tetraazatetracyclo[14.3.1.1(3,7).1(9,13)]docosa-1(20), 3(22),4,6,9(21),10,12,16,18-nonaen-11-yl]carbonyl}piperidin-3-ol trifluoroacetate], the half-inhibitory concentration (IC50) in assay [1] (Table B1) is 235 nM; in assay [2] (Table B1) it was 112 nM; in assay [3] (Table B1), 450 nM; in assay [4] (Table B1), 312 nM; in assay [5] it was greater than 10000 nM.
As to `O=C(Nc1ccc2cc1CCc1cncc(c1)Nc1ncc(Cl)c(n1)N2)N1CCN(c2ccccn2)CC1` [Example B289, N-[6-Chloro-2,4,8,18,22-pentaazatetracyclo[14.3.1.1(3,7).1(9,13)]docosa-1(20),3(22),4,6,9(21),10,12,16,18-nonaen-12-yl]-4-pyridin-2-ylpiperazine-1-carboxamide tris(trifluoroacetate)], the IC50 is 17 nM in assay [1] (Table B1), 134 nM in assay [2] (Table B1), greater than 200 nM in assay [3] (Table B1) and 85 nM in assay [4] (Table B1). Also, the “ALK % of inhibition” value in assay [5] (setting [10]) turned out to be 65%.
In the case of `O=C(NCCNC(=O)c1ccccc1)Nc1ccc2cc1CCc1cccc(c1)Nc1ncc(Cl)c(n1)N2` [Example B189, N-{2-[({[6-Chloro-2,4,8,22-tetraazatetracyclo[14.3.1.1(3,7).1(9,13)]docosa-1(20),3(22),4,6,9(21),10,12,16,18-nonaen-12-yl]amino}carbonyl)amino]ethyl}benzamide trifluoroacetate], the IC50 in assay [1] (Table B1) came out at 5 nM; in assay [2] (Table B1), 6.7 nM; in assay [3] (Table B1) it was 35 nM; in assay [4] (Table B1) it was 22 nM. In addition, in assay [5] (setting [10]), the “ALK % of inhibition” value is 15%.
Consider `COc1cc2cc(c1)Nc1nc(ncc1Cl)Nc1cccc(c1)CC2` [Example A21, 6-Chloro-11-methoxy-2,4,8,22-tetraazatetracyclo[14.3.1.1(3,7).1(9,13)]docosa-1(20),3(22),4,6,9(21),10,12,16,18-nonaene trifluoroacetate], for which the IC50 was 57 nM in assay [1] (setting [6]), 6.2 nM in assay [2] (setting [7]), 26 nM in assay [3] (setting [8]) and 98 nM in assay [4]. Further, the “ALK % of inhibition” value in assay [5] (setting [9]) amounted to 65%.
With `Clc1cccc(N2CCN(Cc3cc4cc(c3)Nc3nc(ncc3Cl)Nc3cccc(c3)CC4)CC2)n1` [Example B217, 6-Chloro-11-{[4-(6-chloropyridin-2-yl)piperazin-1-yl]methyl}-2,4,8,22-tetraazatetracyclo[14.3.1.1(3,7).1(9,13)]docosa-1(20),3(22),4,6,9(21),10,12,16,18-nonaene tris(trifluoroacetate)], the IC50 in assay [1] (Table B1) was 225 nM; in assay [2] (Table B1) it was 71 nM; in assay [3] (Table B1) it was 199 nM; in assay [4] (Table B1) it was greater than 1000 nM; in assay [5], greater than 10000 nM.

One may read the IC50 as the midpoint of a concentration-inhibition curve.

The record behind these values is patent US8871753B2, “Macrocyclic compounds and their use as kinase inhibitors” (Incyte Corporation, priority 2008, dated 2014).
